The record followed here is the supplement of paper PMC10307832.

Common to all, as to experiment: relative viability (nuclei count vs DMSO), 5 days (fraction); higher = more cells survive
Compound in assay [1]: O=S(=O)(c1ccccc1)N(CC(F)(F)F)c1ccc(C(O)(C(F)(F)F)C(F)(F)F)cc1 + CC(=O)Nc1cccc(-n2c(=O)n(C3CC3)c(=O)c3c(Nc4ccc(I)cc4F)n(C)c(=O)c(C)c32)c1 [Trametinib] (partner 0.02 µM)
An outline of the steps:
(§1)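 Lung cancer cell lines in 1536-well plates were dosed by pin tool the day after seeding, either with one drug alone or with a fixed anchor-drug dose plus five library-drug doses (not always all listed) in √10 steps. After 5 days, cells were fixed and their nuclei stained in one step (final 0.05% Triton X-100, 1% formaldehyde, 1 ug/ml Hoechst), then counted on 4× images. Relative viability is the nuclei count in treated wells divided by that in vehicle wells. Values are medians of duplicate plates.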

Compound in assay [2]: O=S(=O)(c1ccccc1)N(CC(F)(F)F)c1ccc(C(O)(C(F)(F)F)C(F)(F)F)cc1 + Cc1cc(Nc2cc(N3CCN(C)CC3)nc(Sc3ccc(NC(=O)C4CC4)cc3)n2)n[nH]1 [Tozasertib] (partner 0.1 µM)
An outline of the steps:
as §1

Compound in the assay “RO-3306 + Foretinib”: C1=CC2=C(C=CC(=C2)C=C3C(=O)NC(=NCC4=CC=CS4)S3)N=C1 [RO-3306] + COc1cc2c(Oc3ccc(NC(=O)C4(C(=O)Nc5ccc(F)cc5)CC4)cc3F)ccnc2cc1OCCCN1CCOCC1 [Foretinib] (partner 0.25 µM)
The essentials: as §1

Compound in assay [3]: O=S(=O)(c1ccccc1)N(CC(F)(F)F)c1ccc(C(O)(C(F)(F)F)C(F)(F)F)cc1 + Nc1ncn([C@H]2C[C@H](O)[C@@H](CO)O2)c(=O)n1 [Decitabine] (partner 2 µM)
The essentials:
as §1

Compound in assay [4]: O=S(=O)(c1ccccc1)N(CC(F)(F)F)c1ccc(C(O)(C(F)(F)F)C(F)(F)F)cc1 + Cc1nc(NC(=O)N2CCC[C@H]2C(N)=O)sc1-c1ccnc(C(C)(C)C(F)(F)F)c1 [Alpelisib] (partner 2 µM)
An outline of the steps: as §1

Compound in assay [5]: O=S(=O)(c1ccccc1)N(CC(F)(F)F)c1ccc(C(O)(C(F)(F)F)C(F)(F)F)cc1 + CC(C)C[C@H](NC(=O)[C@H](Cc1ccccc1)NC(=O)c1cnccn1)B(O)O [Bortezomib] (partner 0.002 µM)
The essentials: as §1

In the case of UMC-11, the relative viability in assay [1] (first compound 0.8 µM) is 0.796; in assay [1] (first compound 2.53 µM), 0.711; in assay [1] (first compound 8 µM), 0.862; in assay [2] (first compound 0.8 µM) it was 0.215; in assay [2] (first compound 2.53 µM), 0.22; in assay [2] (first compound 8 µM) it was 0.237. Besides, the relative viability with RO-3306 + Foretinib (first compound 0.01 µM) was 0.999; with RO-3306 + Foretinib (first compound 0.03162 µM) it was 0.772; in the assay with RO-3306 + Foretinib (first compound 0.1 µM), 1.05; with RO-3306 + Foretinib (first compound 0.3162 µM), 1.21; with RO-3306 + Foretinib (first compound 1 µM), 1.16; in assay [3] (first compound 0.8 µM), 0.587. Besides, the relative viability in assay [3] (first compound 2.53 µM) amounted to 0.471; in assay [3] (first compound 8 µM), 0.681; in assay [4] (first compound 0.8 µM), 1.24; in assay [4] (first compound 2.53 µM) it was 0.98; in assay [4] (first compound 8 µM) it was 1.25; in assay [5] (first compound 0.8 µM) it was 0.929. Also, the relative viability in assay [5] (first compound 2.53 µM) is 0.743; in assay [5] (first compound 8 µM) it was 0.972.
